According to ChEMBL document CHEMBL1132138, “Leishmanicidal activity of combretastatin analogues and heteroanalogues” (Bioorg Med Chem Lett, 1999):
Calls of active or inactive are those of the source. The calls are words filed in the database; no cut-off is given here.

Columns and labels:
Format in all cases: functional, organism-based
Leishmania donovani [1] = experiment: In vitro evaluation of leishmanicidal activity against Leishmania donovani (PP75) at a dose 25 ug/mL; ++ = 80- 90% lysis
Leishmania amazonensis [2] = experiment: In vitro evaluation of leishmanicidal activity against Leishmania amazonensis (PH8) at a dose 10 ug/mL; ++ = 80- 90% lysis
Leishmania donovani [3] = experiment: In vitro evaluation of leishmanicidal activity against Leishmania donovani (PP75) at a dose 10 ug/mL; ++ = 80- 90% lysis
Leishmania braziliensis [4] = experiment: In vitro evaluation of leishmanicidal activity against Leishmania brasiliensis (2903) at a dose 10 ug/mL; ++ = 80- 90% lysis
Leishmania braziliensis [5] = experiment: In vitro evaluation of leishmanicidal activity against Leishmania brasiliensis (2903) at a dose 50 ug/mL; ++ = 80- 90% lysis
Leishmania braziliensis [6] = experiment: In vitro evaluation of leishmanicidal activity against Leishmania brasiliensis (2903) at a dose 25 ug/mL; ++ = 80- 90% lysis
Leishmania amazonensis [7] = experiment: In vitro evaluation of leishmanicidal activity against Leishmania amazonensis (PH8) at a dose 25 ug/mL; ++ = 80- 90% lysis
Leishmania braziliensis [8] = experiment: In vitro evaluation of leishmanicidal activity against Leishmania brasiliensis (2903) at a dose 100 ug/mL; + = <70% lysis
Leishmania donovani [9] = experiment: In vitro evaluation of leishmanicidal activity against Leishmania donovani (PP75) at a dose 100 ug/mL; + = <70% lysis
Leishmania donovani [10] = experiment: Compound was tested in vitro for leishmanicidal activity against Leishmania donovani (PP75) at a dose 100 ug/mL; ++ = 80-90% of lysis
Leishmania amazonensis [11] = experiment: In vitro evaluation of leishmanicidal activity against Leishmania amazonensis (PH8) at a dose 100 ug/mL; ++ = 80-90% of lysis
Leishmania braziliensis [12] = experiment: Compound was tested in vitro for leishmanicidal activity against Leishmania brasiliensis (2903) at a dose 100 ug/mL; ++ = 80-90% of lysis
Leishmania amazonensis [13] = experiment: In vitro evaluation of leishmanicidal activity against Leishmania amazonensis (PH8) at a dose 50 ug/mL;++ = 80- 90% lysis
Leishmania donovani [14] = experiment: In vitro evaluation of leishmanicidal activity against Leishmania donovani (PP75) at a dose 50 ug/mL; ++ = 80- 90% lysis
Leishmania amazonensis [15] = experiment: In vitro evaluation of leishmanicidal activity against Leishmania amazonensis (PH8) at a dose 100 ug/mL; ++ = 80- 90% lysis
Leishmania braziliensis [16] = experiment: In vitro evaluation of leishmanicidal activity against Leishmania brasiliensis (2903) at a dose 100 ug/mL; ++ = 80- 90% lysis
Leishmania amazonensis [17] = experiment: In vitro evaluation of leishmanicidal activity against Leishmania amazonensis (PH8) at a dose 50 ug/mL; ++ = 80- 90% lysis
Leishmania donovani [18] = experiment: In vitro evaluation of leishmanicidal activity against Leishmania donovani (PP75) at a dose 100 ug/mL; ++ = 80- 90% lysis
Leishmania braziliensis [19] = experiment: In vitro evaluation of leishmanicidal activity against Leishmania brasiliensis (2903) at a dose 100 ug/mL; +++=total lysis of parasites
Leishmania amazonensis [20] = experiment: In vitro evaluation of leishmanicidal activity against Leishmania amazonensis (PH8) at a dose 50 ug/mL; Total lysis of parasites
Leishmania donovani [21] = experiment: In vitro evaluation of leishmanicidal activity against Leishmania donovani (PP75) at a dose 10 ug/mL; +++=total lysis of parasites
Leishmania amazonensis [22] = experiment: In vitro evaluation of leishmanicidal activity against Leishmania amazonensis (PH8) at a dose 100 ug/mL; +++=total lysis of parasites
Leishmania braziliensis [23] = experiment: In vitro evaluation of leishmanicidal activity against Leishmania brasiliensis (2903) at a dose 50 ug/mL; +++=total lysis of parasites
Leishmania amazonensis [24] = experiment: In vitro evaluation of leishmanicidal activity against Leishmania amazonensis (PH8) at a dose 25 ug/mL; Total lysis of parasites
Leishmania donovani [25] = experiment: In vitro evaluation of leishmanicidal activity against Leishmania donovani (PP75) at a dose 25 ug/mL; +++=total lysis of parasites
Leishmania braziliensis [26] = experiment: In vitro evaluation of leishmanicidal activity against Leishmania brasiliensis (2903) at a dose 25 ug/mLv
Leishmania amazonensis [27] = experiment: In vitro evaluation of leishmanicidal activity against Leishmania amazonensis (PH8) at a dose 10 ug/mL; +++=total lysis of parasites
Leishmania braziliensis [28] = experiment: In vitro evaluation of leishmanicidal activity against Leishmania brasiliensis (2903) at a dose 10 ug/mL; +++=total lysis of parasites
Leishmania donovani [29] = experiment: In vitro evaluation of leishmanicidal activity against Leishmania donovani (PP75) at a dose 50 ug/mL; +++=total lysis of parasites
Leishmania donovani [30] = experiment: In vitro evaluation of leishmanicidal activity against Leishmania donovani (PP75) at a dose 100 ug/mL; +++=total lysis of parasites
Leishmania amazonensis [31] = experiment: In vitro evaluation of leishmanicidal activity against Leishmania amazonensis (PH8) at a dose 100 ug/mL; + = <70% lysis

COc1cc(CC(=O)c2ccc3c(c2)OCO3)cc(OC)c1OC
Leishmanicidal activity (Leishmania donovani [1]): 80- 90% lysis
Leishmanicidal activity (Leishmania amazonensis [2]): 80- 90% lysis
Leishmanicidal activity (Leishmania donovani [3]): 80- 90% lysis
Leishmanicidal activity (Leishmania braziliensis [4]): 80- 90% lysis
Leishmanicidal activity (Leishmania braziliensis [5]): 80- 90% lysis
Leishmanicidal activity (Leishmania braziliensis [6]): 80- 90% lysis
Leishmanicidal activity (Leishmania amazonensis [7]): 80- 90% lysis

COc1cc(CCc2ccoc2)cc(OC)c1OC
Leishmanicidal activity (Leishmania braziliensis [8]): <70% lysis
Leishmanicidal activity (Leishmania donovani [9]): <70% lysis

COc1cc(CC2(c3cn(C)c4ccccc34)SCCCS2)cc(OC)c1OC
Leishmanicidal activity (Leishmania donovani [10]): 80-90% of lysis
Leishmanicidal activity (Leishmania amazonensis [11]): 80-90% of lysis
Leishmanicidal activity (Leishmania braziliensis [12]): 80-90% of lysis

COc1cc(CCc2cn(C)c3ccccc23)cc(OC)c1OC
Leishmanicidal activity (Leishmania donovani [1]): 80- 90% lysis
Leishmanicidal activity (Leishmania amazonensis [2]): 80- 90% lysis
Leishmanicidal activity (Leishmania donovani [3]): 80- 90% lysis
Leishmanicidal activity (Leishmania braziliensis [4]): 80- 90% lysis
Leishmanicidal activity (Leishmania braziliensis [6]): 80- 90% lysis
Leishmanicidal activity (Leishmania amazonensis [7]): 80- 90% lysis

COc1ccc2[nH]c(-c3ccc4c(c3)OCO4)c(-c3cc(OC)c(OC)c(OC)c3)c2c1
Leishmanicidal activity (Leishmania amazonensis [13]): 80- 90% lysis
Leishmanicidal activity (Leishmania braziliensis [5]): 80- 90% lysis
Leishmanicidal activity (Leishmania donovani [14]): 80- 90% lysis

COc1ccc(CCc2ccc3c(c2)OCO3)cc1O
Leishmanicidal activity (Leishmania amazonensis [15]): 80- 90% lysis
Leishmanicidal activity (Leishmania braziliensis [5]): 80- 90% lysis
Leishmanicidal activity (Leishmania braziliensis [16]): 80- 90% lysis
Leishmanicidal activity (Leishmania donovani [14]): 80- 90% lysis
Leishmanicidal activity (Leishmania amazonensis [17]): 80- 90% lysis

COc1cc(CC(=O)c2ccc(C)o2)cc(OC)c1OC
Leishmanicidal activity (Leishmania donovani [18]): 80- 90% lysis
Leishmanicidal activity (Leishmania amazonensis [2]): 80- 90% lysis
Leishmanicidal activity (Leishmania donovani [3]): 80- 90% lysis
Leishmanicidal activity (Leishmania braziliensis [4]): 80- 90% lysis

N=C(N)c1ccc(OCCCCCOc2ccc(C(=N)N)cc2)cc1
Leishmanicidal activity (Leishmania braziliensis [19]): Active
Leishmanicidal activity (Leishmania amazonensis [20]): Active
Leishmanicidal activity (Leishmania donovani [21]): Active
Leishmanicidal activity (Leishmania amazonensis [22]): Active
Leishmanicidal activity (Leishmania braziliensis [23]): Active
Leishmanicidal activity (Leishmania amazonensis [24]): Active
Leishmanicidal activity (Leishmania donovani [25]): Active
Leishmanicidal activity (Leishmania braziliensis [26]): Active
Leishmanicidal activity (Leishmania amazonensis [27]): Active
Leishmanicidal activity (Leishmania braziliensis [28]): Active
Leishmanicidal activity (Leishmania donovani [29]): Active
Leishmanicidal activity (Leishmania donovani [30]): Active

COc1ccc(CC(=O)c2ccco2)cc1O
Leishmanicidal activity (Leishmania donovani [18]): 80- 90% lysis
Leishmanicidal activity (Leishmania amazonensis [15]): 80- 90% lysis
Leishmanicidal activity (Leishmania braziliensis [16]): 80- 90% lysis

COc1ccc2[nH]c(-c3ccco3)c(-c3cc(OC)c(OC)c(OC)c3)c2c1
Leishmanicidal activity (Leishmania amazonensis [2]): 80- 90% lysis
Leishmanicidal activity (Leishmania donovani [3]): 80- 90% lysis
Leishmanicidal activity (Leishmania braziliensis [4]): 80- 90% lysis

COc1cc(CC(O)c2ccc3c(c2)OCO3)cc(OC)c1OC (stereo not given)
Leishmanicidal activity (Leishmania donovani [1]): 80- 90% lysis
Leishmanicidal activity (Leishmania amazonensis [2]): 80- 90% lysis
Leishmanicidal activity (Leishmania donovani [3]): 80- 90% lysis
Leishmanicidal activity (Leishmania braziliensis [4]): 80- 90% lysis
Leishmanicidal activity (Leishmania braziliensis [5]): 80- 90% lysis
Leishmanicidal activity (Leishmania braziliensis [6]): 80- 90% lysis
Leishmanicidal activity (Leishmania amazonensis [7]): 80- 90% lysis
Leishmanicidal activity (Leishmania donovani [14]): 80- 90% lysis
Leishmanicidal activity (Leishmania amazonensis [17]): 80- 90% lysis

COc1cc(CC(=O)c2ccco2)cc(OC)c1OC
Leishmanicidal activity (Leishmania amazonensis [2]): 80- 90% lysis
Leishmanicidal activity (Leishmania donovani [3]): 80- 90% lysis
Leishmanicidal activity (Leishmania braziliensis [4]): 80- 90% lysis

COc1ccc(CCc2ccco2)cc1O
Leishmanicidal activity (Leishmania donovani [18]): 80- 90% lysis
Leishmanicidal activity (Leishmania amazonensis [15]): 80- 90% lysis
Leishmanicidal activity (Leishmania braziliensis [16]): 80- 90% lysis

COc1ccc2[nH]c(-c3ccc4ccccc4c3)c(-c3cc(OC)c(OC)c(OC)c3)c2c1
Leishmanicidal activity (Leishmania donovani [18]): 80- 90% lysis
Leishmanicidal activity (Leishmania amazonensis [15]): 80- 90% lysis
Leishmanicidal activity (Leishmania braziliensis [16]): 80- 90% lysis

COc1cc(CC(=O)c2ccoc2)cc(OC)c1OC
Leishmanicidal activity (Leishmania donovani [18]): 80- 90% lysis
Leishmanicidal activity (Leishmania amazonensis [15]): 80- 90% lysis
Leishmanicidal activity (Leishmania braziliensis [16]): 80- 90% lysis

COc1cc(CCc2ccc3ccccc3c2)cc(OC)c1OC
Leishmanicidal activity (Leishmania braziliensis [5]): 80- 90% lysis
Leishmanicidal activity (Leishmania donovani [14]): 80- 90% lysis
Leishmanicidal activity (Leishmania amazonensis [17]): 80- 90% lysis

COc1cc(CCc2ccco2)cc(OC)c1OC
Leishmanicidal activity (Leishmania donovani [1]): 80- 90% lysis
Leishmanicidal activity (Leishmania donovani [18]): 80- 90% lysis
Leishmanicidal activity (Leishmania amazonensis [2]): 80- 90% lysis
Leishmanicidal activity (Leishmania donovani [3]): 80- 90% lysis
Leishmanicidal activity (Leishmania braziliensis [4]): 80- 90% lysis
Leishmanicidal activity (Leishmania braziliensis [6]): 80- 90% lysis
Leishmanicidal activity (Leishmania amazonensis [7]): 80- 90% lysis

COc1cc(C(O)C(=O)c2cccs2)cc(OC)c1OC (stereo not given)
Leishmanicidal activity (Leishmania braziliensis [8]): <70% lysis
Leishmanicidal activity (Leishmania amazonensis [31]): <70% lysis
Leishmanicidal activity (Leishmania donovani [9]): <70% lysis

COc1cc(CC(O)c2ccco2)cc(OC)c1OC (stereo not given)
Leishmanicidal activity (Leishmania donovani [18]): 80- 90% lysis
Leishmanicidal activity (Leishmania amazonensis [15]): 80- 90% lysis
Leishmanicidal activity (Leishmania braziliensis [16]): 80- 90% lysis
